Test system: 699152-130-R-J1-PDC complex spheroid viability
Assay: Anticancer human tumor 699152-130-R-J1-PDC patient-derived pancreatic carcinoma cell line growth inhibition [POLQ]
Settings: for IC50: curve of first compound; for viability, T/C: stronger effect = lower value
Protocol: Multicellular complex tumor spheroid response to Polymerase (POL) inhibitors (novobiocin, ART-558, RP6685) in combination with a variety of drugs and investigational agents in selected tumor cell lines
The POL inhibitors (novobiocin, ART-558, and RP6685) were evaluated both individually and in combination with standard of care and investigational anticancer small molecules within a complex spheroid model of solid tumors. . Complex spheroids include a stromal component modeled by human endothelial cells (HUVEC) and fibroblasts modeled by human mesenchymal stem cells (MSCs). The concentration ranges selected for each drug and investigational agent were based upon clinically achievable concentrations if the clinical Cmax of the agent was known.
Compounds. The drugs and investigational agents: novobiocin (NSC847541), ART-558 (NSC835418), RP-6685 (NSC848927), peposertib (NSC802822), ceralasertib (NSC780249), elimusertib (NSC800525), camonsertib (NSC841442), AZD-1390 (NSC803789), olaparib (NSC753686), talazoparib (NSC767125), rucaparib (NSC756644), sotorasib (NSC818433), MRTX-1133 (NSC836407), SN-38 (NSC673596), topotecan (NSC609699), epotoside (NSC141540), doxorubicin (NSC123127), gemcitabine (NSC613327), 5-fluorouracil (NSC19893), paclitaxel (NSC125973), vemurafenib (NSC761431), MSA-2 (NSC828583), SN-011 (NSC837082), adavosertib (NSC754352), prexasertib (NSC758257), carboplatin (NSC241240) and oxaliplatin (NSC266046), were obtained from the National Cancer Institute (NCI) Developmental Therapeutics Program Chemical Repository (21). The FDA-approved anticancer drug set is available from the Developmental Therapeutics Program at https://dtp.cancer.gov/organization/dscb/obtaining/. […] The stock solutions were prepared in dimethyl sulfoxide (DMSO, Sigma-Aldrich, St. Louis, MO, cat. D2650), except for the platinum compounds which were prepared in saline (Quality Biological, Gaithersburg, MD, cat. 114-055-101), at 800-fold the tested concentration and stored at -70 degrees C prior to their use. All drugs and investigational agents were tested over a range starting from a high concentration at or near the clinical Cmax and decreasing in half-log increments. If the clinical Cmax for an agent had not been determined, the highest concentration tested was 10 microM, except for SN-38, which was tested at a high concentration of 1 microM.
Cell Culture. All cells were maintained in an incubator at 37 degrees C and 5% CO2 with 95% humidity. The PDC lines were cultured according to standard operating procedures established by the NCI PDMR (https://pdmr.cancer.gov). Table 3 of the manuscript, lists the cell lines along with the number of the three cell types plated to form the mct-spheroids and media for tumor cell growth. After thawing, all PDC lines, except 997537-175-T-J1-PDC and 415267-285-R-J2-PDC, were cultured in Matrigel-coated flasks prepared with a working solution of 1X Ham's F-12 nutrient mix, without supplementation (Thermo Fisher Scientific, cat. 11765054), 100 U/mL penicillin-streptomycin (Thermo Fisher Scientific, cat. 15140122), and 2.5% Matrigel (Corning Inc., Corning, NY, cat. 354248) for the first three passages. The two PDC lines 997537-175-T-J1-PDC and 415267-285-R-J2-PDC were cultured on uncoated flasks. The 857933-349-R-J2-PDC line was cultured in 6C/Colon 1B media containing advanced DMEM/F-12 (Thermo Fisher Scientific, cat. 12634028), 10 mM HEPES (Thermo Fisher Scientific, cat. 15630080), 1X GlutaMAX supplement (Thermo Fisher Scientific, cat. 35050061), 0.1 mg/mL primocin (InvivoGen, San Diego, CA, cat. ant-pm-2), 10% defined fetal bovine serum, heat inactivated (HyClone Laboratories Inc., Logan, UT, cat. SH30070.03HI), 50% L-WRN conditioned media (ATCC, cat. CRL-3276), 1.25 mM N-Acetyl-L-cysteine (Sigma-Aldrich, cat. A9165), 10 mM nicotinamide (Sigma-Aldrich, cat. N0636), 1X B-27 supplement (Thermo Fisher Scientific, cat. 17504044), 1X N-2 supplement (Thermo Fisher Scientific, cat. […]

[1] = second compound 0.0316 µM, first compound 0.0316 µM
[2] = second compound 0.0316 µM, first compound 0.1 µM
[3] = second compound 0.0316 µM, first compound 0.316 µM
[4] = second compound 0.0316 µM, first compound 1 µM
[5] = second compound 0.1 µM, first compound 0.0316 µM
[6] = second compound 0.1 µM, first compound 0.1 µM
[7] = second compound 0.1 µM, first compound 0.316 µM
[8] = second compound 0.1 µM, first compound 1 µM
[9] = second compound 0.316 µM, first compound 0.0316 µM
[10] = second compound 0.316 µM, first compound 0.1 µM
[11] = second compound 0.316 µM, first compound 0.316 µM
[12] = second compound 0.316 µM, first compound 1 µM
[13] = second compound 1 µM, first compound 0.0316 µM
[14] = second compound 1 µM, first compound 0.1 µM
[15] = second compound 1 µM, first compound 0.316 µM
[16] = second compound 1 µM, first compound 1 µM
[17] = second compound 3.16 µM, first compound 0.0316 µM
[18] = second compound 3.16 µM, first compound 0.1 µM
[19] = second compound 3.16 µM, first compound 0.316 µM
[20] = second compound 3.16 µM, first compound 1 µM
[21] = second compound 10 µM, first compound 0.0316 µM
[22] = second compound 10 µM, first compound 0.1 µM
[23] = second compound 10 µM, first compound 0.316 µM
[24] = second compound 10 µM, first compound 1 µM
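Further: spheroids exposed to agents for 7 days before viability reading.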
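Wherever viability, T/C is given: percent of DMSO vehicle control viability so 100% = vehicle and 0% = no viable signal.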

CC1COCCN1c1cc(C2(S(C)(=N)=O)CC2)nc(-c2ccnc3[nH]ccc23)n1 (centres undefined) + Nc1ccc(C#CCN(C(=O)Cc2ncc(C(F)(F)F)cc2C(F)(F)F)c2ccc(F)cc2)nn1
IC50 (second compound 0.0316 µM): > 10 µM | IC50 (second compound 0.1 µM): > 10 µM | IC50 (second compound 0.316 µM): > 10 µM | IC50 (second compound 1 µM): > 10 µM | IC50 (second compound 3.16 µM): > 10 µM | IC50 (second compound 10 µM): > 10 µM | viability, T/C [1]: 109% | viability, T/C [2]: 100% | viability, T/C [3]: 89.4% | viability, T/C [4]: 88.7% | viability, T/C (second compound 0.0316 µM, first compound 3.16 µM): 75.8% | viability, T/C (second compound 0.0316 µM, first compound 10 µM): 68.9% | viability, T/C [5]: 106% | viability, T/C [6]: 92.7% | viability, T/C [7]: 96.6% | viability, T/C [8]: 97.6% | viability, T/C (second compound 0.1 µM, first compound 3.16 µM): 76.2% | viability, T/C (second compound 0.1 µM, first compound 10 µM): 62.3% | viability, T/C [9]: 104% | viability, T/C [10]: 113% | viability, T/C [11]: 110% | viability, T/C [12]: 94.4% | viability, T/C (second compound 0.316 µM, first compound 3.16 µM): 80.1% | viability, T/C (second compound 0.316 µM, first compound 10 µM): 68.9% | viability, T/C [13]: 114% | viability, T/C [14]: 96.1% | viability, T/C [15]: 99.9% | viability, T/C [16]: 86% | viability, T/C (second compound 1 µM, first compound 3.16 µM): 74.7% | viability, T/C (second compound 1 µM, first compound 10 µM): 66.1% | viability, T/C [17]: 108% | viability, T/C [18]: 93.4% | viability, T/C [19]: 123% | viability, T/C [20]: 113% | viability, T/C (second compound 3.16 µM, first compound 3.16 µM): 88.1% | viability, T/C (second compound 3.16 µM, first compound 10 µM): 76.6% | viability, T/C [21]: 110% | viability, T/C [22]: 105% | viability, T/C [23]: 106% | viability, T/C [24]: 95.5% | viability, T/C (second compound 10 µM, first compound 3.16 µM): 82.6% | viability, T/C (second compound 10 µM, first compound 10 µM): 77.2%

CCc1c2c(nc3ccc(O)cc13)-c1cc3c(c(=O)n1C2)COC(=O)[C@]3(O)CC + Nc1ccc(C#CCN(C(=O)Cc2ncc(C(F)(F)F)cc2C(F)(F)F)c2ccc(F)cc2)nn1
IC50 (second compound 0.0316 µM): 0.0602 µM | IC50 (second compound 0.1 µM): 0.0483 µM | IC50 (second compound 0.316 µM): 0.0668 µM | IC50 (second compound 1 µM): 0.0363 µM | IC50 (second compound 3.16 µM): 0.0555 µM | IC50 (second compound 10 µM): 0.0495 µM | viability, T/C (second compound 0.0316 µM, first compound 0.00316 µM): 82.1% | viability, T/C (second compound 0.0316 µM, first compound 0.01 µM): 55.2% | viability, T/C [1]: 58.4% | viability, T/C [2]: 47.2% | viability, T/C [3]: 36.4% | viability, T/C [4]: 11.4% | viability, T/C (second compound 0.1 µM, first compound 0.00316 µM): 83.1% | viability, T/C (second compound 0.1 µM, first compound 0.01 µM): 57.4% | viability, T/C [5]: 52% | viability, T/C [6]: 48.3% | viability, T/C [7]: 32.6% | viability, T/C [8]: 12.6% | viability, T/C (second compound 0.316 µM, first compound 0.00316 µM): 72.7% | viability, T/C (second compound 0.316 µM, first compound 0.01 µM): 61.6% | viability, T/C [9]: 55.8% | viability, T/C [10]: 47.1% | viability, T/C [11]: 32% | viability, T/C [12]: 8.12% | viability, T/C (second compound 1 µM, first compound 0.00316 µM): 74.7% | viability, T/C (second compound 1 µM, first compound 0.01 µM): 55.2% | viability, T/C [13]: 51.2% | viability, T/C [14]: 44.3% | viability, T/C [15]: 30.5% | viability, T/C [16]: 14.9% | viability, T/C (second compound 3.16 µM, first compound 0.00316 µM): 88.7% | viability, T/C (second compound 3.16 µM, first compound 0.01 µM): 66.4% | viability, T/C [17]: 54.4% | viability, T/C [18]: 48.5% | viability, T/C [19]: 29.6% | viability, T/C [20]: 10.8% | viability, T/C (second compound 10 µM, first compound 0.00316 µM): 92.2% | viability, T/C (second compound 10 µM, first compound 0.01 µM): 71.2% | viability, T/C [21]: 52.2% | viability, T/C [22]: 44.2% | viability, T/C [23]: 27.7% | viability, T/C [24]: 9.98%

Source: PubChem BioAssay AID1963835 (Molecular Pharmacology Branch, DTP, NCI, 2024)
